Publication PMC3692398 (Biochemical pharmacology, 2013)
Read-outs that look alike come from different tables or passages of the source.

Columns and labels:
hSERT [1] = target: T1, hSERT (Homo sapiens, UniProt P31645); assay: Superfusion release of preloaded [3H]5-HT from HEK-hSERT cells; assay type: cell-based; conditions: for EC50: read-out: Drug-induced release of [3H]neurotransmitter EC50 ± sem, hSERT [3H]5-HT, superfusion, AUC
[2] = blood from heart, periphery, and femoral veins; postmortem cases; ref [32];[33];[34]; cited from earlier work
h5-HT2C receptor [3] = target: T2, h5-HT2C receptor (Homo sapiens, UniProt P28335); assay: Inhibition of 5-HT-stimulated IP-1 formation; assay type: cell-based; conditions: 100 nM 5-HT; normalized to maximal inhibition by SB242084 (1 µM)
T2 sequence (P28335 33-458): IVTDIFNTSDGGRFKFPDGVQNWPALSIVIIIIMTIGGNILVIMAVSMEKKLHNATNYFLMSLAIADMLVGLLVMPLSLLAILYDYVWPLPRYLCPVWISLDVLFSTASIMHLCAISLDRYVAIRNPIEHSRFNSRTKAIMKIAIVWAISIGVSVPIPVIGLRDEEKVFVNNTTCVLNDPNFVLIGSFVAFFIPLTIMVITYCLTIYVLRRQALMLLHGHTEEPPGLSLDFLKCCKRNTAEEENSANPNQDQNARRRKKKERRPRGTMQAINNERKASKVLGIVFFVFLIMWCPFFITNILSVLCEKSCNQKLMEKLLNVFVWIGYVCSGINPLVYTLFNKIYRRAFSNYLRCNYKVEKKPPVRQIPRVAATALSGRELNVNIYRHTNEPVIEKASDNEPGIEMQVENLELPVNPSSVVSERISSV

hNET [4] = target: T3, hNET (Homo sapiens, UniProt P23975); assay: cell-based; assay type: cell-based; conditions: for ratio of binding Ki to uptake IC50, hNET: [125I]RTI-55 Ki / [3H]NE uptake IC50; for IC50: read-out: Inhibition of [3H]neurotransmitter uptake IC50 ± sem, hNET [3H]NE, 20 nM [3H]NE, intact cells
hNET [5] = target: T3, hNET; assay: Superfusion release of preloaded [3H]NE from HEK-hNET cells; assay type: cell-based; conditions: for releasing efficacy, hNET [3H]NE: concentrations ranging from 10 nM to 100 µM; for EC50: read-out: Drug-induced release of [3H]neurotransmitter EC50 ± sem, hNET [3H]NE, superfusion, AUC; for % maximum release ± sem, hNET [3H]NE: relative to maximal AUC induced by METH (0.3 or 1 µM)
hDAT [6] = target: T4, hDAT (Homo sapiens, UniProt Q01959); assay: Inhibition of [125I]RTI-55 binding, HEK-hDAT membranes; conditions: read-out: Inhibition of [125I]RTI-55 binding Ki ± sem, hDAT; HEK-hDAT membranes
h5-HT2A receptor [7] = target: T5, h5-HT2A receptor (Homo sapiens, UniProt P28223); assay: [125I]DOI binding, HEK-h5-HT2A; conditions: read-out: Inhibition of radioligand binding Ki ± sem, h5-HT2A [125I]DOI
hSigma1 receptor = hSigma1 receptor (Homo sapiens, UniProt Q99720); assay: [3H]; assay type: binding; conditions: read-out: Inhibition of [3H]pentazocine binding Ki ± sem, hSigma1
h5-HT2C receptor [8] = target: T2, h5-HT2C receptor; assay: biochemical; assay type: binding; conditions: read-out: Inhibition of radioligand binding Ki ± sem, h5-HT2C [125I]DOI
h5-HT1A receptor [9] = target: T6, h5-HT1A receptor (Homo sapiens, UniProt P08908); assay: [3H]8-OH-DPAT binding, HEK-h5-HT1A; conditions: read-out: Inhibition of radioligand binding Ki ± sem, h5-HT1A [3H]8OH-DPAT
T6 sequence (P08908 1-422): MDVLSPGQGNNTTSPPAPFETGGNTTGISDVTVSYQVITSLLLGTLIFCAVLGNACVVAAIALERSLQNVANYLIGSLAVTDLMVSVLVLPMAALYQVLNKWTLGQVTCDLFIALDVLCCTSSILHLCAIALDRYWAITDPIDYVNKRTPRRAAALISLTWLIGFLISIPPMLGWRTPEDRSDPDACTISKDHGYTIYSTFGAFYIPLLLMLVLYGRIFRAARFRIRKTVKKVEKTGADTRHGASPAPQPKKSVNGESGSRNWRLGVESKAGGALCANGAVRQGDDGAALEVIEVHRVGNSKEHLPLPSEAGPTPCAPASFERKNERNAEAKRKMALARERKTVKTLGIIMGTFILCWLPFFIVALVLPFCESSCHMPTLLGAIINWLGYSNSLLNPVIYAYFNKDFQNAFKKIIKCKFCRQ

hSERT [10] = target: T1, hSERT; assay: Inhibition of [3H]5-HT uptake, intact HEK-hSERT cells; assay type: cell-based; conditions: for ratio of binding Ki to uptake IC50, hSERT: [125I]RTI-55 Ki / [3H]5-HT uptake IC50; for IC50: read-out: Inhibition of [3H]neurotransmitter uptake IC50 ± sem, hSERT [3H]5-HT, 20 nM [3H]5-HT, intact cells
hVMAT2 [11] = target: T7, hVMAT2 (Homo sapiens, UniProt Q05940); assay: Superfusion release of preloaded [3H]NE from HEK-hVMAT2 cells; assay type: cell-based; conditions: for EC50: read-out: Drug-induced release of [3H]NE EC50 ± sem, hVMAT2, superfusion
hVMAT2 [12] = target: T7, hVMAT2; assay: Inhibition of [3H]DHTB binding, HEK-hVMAT2 membranes; conditions: read-out: Inhibition of [3H]DHTB binding Ki ± sem, hVMAT2
h5-HT1A receptor [13] = target: T6, h5-HT1A receptor; assay: Stimulation of [35S]GTPγS binding, HEK-h5-HT1A membranes; assay type: biochemical; conditions: for h5-HT1A Stimulation of [35S]GTPγS binding % maximum stimulation ± sem: normalized to the maximal stimulation by 5-HT; for EC50: read-out: h5-HT1A Stimulation of [35S]GTPγS binding EC50 ± sem
hVMAT2 [14] = target: T7, hVMAT2; assay: Inhibition of [3H]5-HT uptake, HEK-hVMAT2 membrane preparation; assay type: biochemical; conditions: read-out: Inhibition of [3H]5-HT uptake IC50 ± sem, hVMAT2; 40 nM [3H]5-HT, 2 mM MgATP
h5-HT2A receptor [15] = target: T5, h5-HT2A receptor; assay: Inhibition of 5-HT-stimulated IP-1 formation; assay type: cell-based; conditions: 100 nM 5-HT; for h5-HT2A Inhibition of 5-HT-stimulated IP-1 formation % maximum inhibition ± sem: normalized to maximal inhibition by ketanserin (10 µM); for IC50: read-out: h5-HT2A Inhibition of 5-HT-stimulated IP-1 formation IC50 ± sem
hNET [16] = target: T3, hNET; assay: biochemical; assay type: binding; conditions: read-out: Inhibition of [125I]RTI-55 binding Ki ± sem, hNET; HEK-hNET membranes
hDAT [17] = target: T4, hDAT; assay: Inhibition of [3H]DA uptake, intact HEK-hDAT cells; assay type: cell-based; conditions: for ratio of binding Ki to uptake IC50, hDAT: [125I]RTI-55 Ki / [3H]DA uptake IC50; for IC50: read-out: Inhibition of [3H]neurotransmitter uptake IC50 ± sem, hDAT [3H]DA, 20 nM [3H]DA, intact cells
hDAT [18] = target: T4, hDAT; assay: Superfusion release of preloaded [3H]DA from HEK-hDAT cells; assay type: cell-based; conditions: for releasing efficacy, hDAT [3H]DA: concentrations ranging from 1 nM to 100 µM; for EC50: read-out: Drug-induced release of [3H]neurotransmitter EC50 ± sem, hDAT [3H]DA, superfusion, AUC

T4 sequence (Q01959 whole entry): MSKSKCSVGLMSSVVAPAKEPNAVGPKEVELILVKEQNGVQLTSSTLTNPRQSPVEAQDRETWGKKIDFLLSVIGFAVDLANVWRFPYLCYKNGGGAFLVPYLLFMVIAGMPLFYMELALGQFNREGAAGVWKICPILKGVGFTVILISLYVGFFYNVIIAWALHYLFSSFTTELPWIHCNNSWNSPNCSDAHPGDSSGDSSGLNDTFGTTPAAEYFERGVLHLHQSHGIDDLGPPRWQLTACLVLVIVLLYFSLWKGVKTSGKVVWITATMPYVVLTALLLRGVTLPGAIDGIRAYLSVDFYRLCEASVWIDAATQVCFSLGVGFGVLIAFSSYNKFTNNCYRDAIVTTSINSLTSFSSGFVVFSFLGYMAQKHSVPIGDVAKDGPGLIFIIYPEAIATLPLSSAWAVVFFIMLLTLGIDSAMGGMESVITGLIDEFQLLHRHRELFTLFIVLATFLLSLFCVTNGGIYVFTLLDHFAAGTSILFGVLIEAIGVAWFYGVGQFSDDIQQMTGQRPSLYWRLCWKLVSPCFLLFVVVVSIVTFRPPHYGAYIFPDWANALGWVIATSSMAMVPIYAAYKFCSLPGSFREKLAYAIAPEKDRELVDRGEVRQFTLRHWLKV
T1 sequence (P31645 whole entry, the tested form may be a part): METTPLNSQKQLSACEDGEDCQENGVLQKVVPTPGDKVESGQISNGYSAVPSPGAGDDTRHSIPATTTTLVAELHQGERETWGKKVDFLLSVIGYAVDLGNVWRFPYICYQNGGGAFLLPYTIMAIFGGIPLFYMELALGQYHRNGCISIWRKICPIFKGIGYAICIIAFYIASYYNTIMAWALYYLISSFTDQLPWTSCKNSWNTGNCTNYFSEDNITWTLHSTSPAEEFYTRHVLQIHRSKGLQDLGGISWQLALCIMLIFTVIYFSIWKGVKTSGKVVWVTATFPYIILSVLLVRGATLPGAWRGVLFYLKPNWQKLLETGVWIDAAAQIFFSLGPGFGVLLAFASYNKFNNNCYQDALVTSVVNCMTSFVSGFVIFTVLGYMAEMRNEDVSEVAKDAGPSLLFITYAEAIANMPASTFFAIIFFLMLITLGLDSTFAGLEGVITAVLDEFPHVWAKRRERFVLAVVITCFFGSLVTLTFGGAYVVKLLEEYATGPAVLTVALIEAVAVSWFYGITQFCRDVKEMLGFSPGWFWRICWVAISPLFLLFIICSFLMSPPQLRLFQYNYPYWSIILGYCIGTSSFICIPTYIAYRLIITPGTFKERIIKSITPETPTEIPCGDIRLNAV
T7 sequence (Q05940 whole entry, the tested form may be a part): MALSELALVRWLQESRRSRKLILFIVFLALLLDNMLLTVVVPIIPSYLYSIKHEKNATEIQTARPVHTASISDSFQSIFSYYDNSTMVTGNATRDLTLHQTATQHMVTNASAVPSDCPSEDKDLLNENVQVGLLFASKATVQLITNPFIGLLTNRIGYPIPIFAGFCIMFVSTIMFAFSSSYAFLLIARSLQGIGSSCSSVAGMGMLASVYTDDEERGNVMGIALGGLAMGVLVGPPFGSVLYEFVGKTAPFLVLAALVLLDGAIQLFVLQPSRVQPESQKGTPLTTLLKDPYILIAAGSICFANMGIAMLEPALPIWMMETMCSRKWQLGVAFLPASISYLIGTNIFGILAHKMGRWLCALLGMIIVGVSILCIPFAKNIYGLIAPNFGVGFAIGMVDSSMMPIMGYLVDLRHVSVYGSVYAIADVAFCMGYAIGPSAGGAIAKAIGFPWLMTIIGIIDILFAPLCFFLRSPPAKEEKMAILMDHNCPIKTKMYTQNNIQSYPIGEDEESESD
T5 sequence (P28223 whole entry): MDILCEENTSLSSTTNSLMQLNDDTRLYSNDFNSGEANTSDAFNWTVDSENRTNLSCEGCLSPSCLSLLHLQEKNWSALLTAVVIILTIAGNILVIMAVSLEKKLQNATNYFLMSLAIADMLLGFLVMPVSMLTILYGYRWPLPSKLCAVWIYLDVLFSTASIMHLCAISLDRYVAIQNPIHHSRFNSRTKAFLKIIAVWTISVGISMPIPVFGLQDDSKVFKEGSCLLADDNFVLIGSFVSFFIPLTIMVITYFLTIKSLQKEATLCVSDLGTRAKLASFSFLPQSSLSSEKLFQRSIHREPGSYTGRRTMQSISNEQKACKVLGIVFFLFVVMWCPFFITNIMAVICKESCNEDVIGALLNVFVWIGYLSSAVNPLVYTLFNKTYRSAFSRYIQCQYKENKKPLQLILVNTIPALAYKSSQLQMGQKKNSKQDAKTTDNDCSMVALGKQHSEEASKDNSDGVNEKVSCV
T3 sequence (P23975 whole entry, the tested form may be a part): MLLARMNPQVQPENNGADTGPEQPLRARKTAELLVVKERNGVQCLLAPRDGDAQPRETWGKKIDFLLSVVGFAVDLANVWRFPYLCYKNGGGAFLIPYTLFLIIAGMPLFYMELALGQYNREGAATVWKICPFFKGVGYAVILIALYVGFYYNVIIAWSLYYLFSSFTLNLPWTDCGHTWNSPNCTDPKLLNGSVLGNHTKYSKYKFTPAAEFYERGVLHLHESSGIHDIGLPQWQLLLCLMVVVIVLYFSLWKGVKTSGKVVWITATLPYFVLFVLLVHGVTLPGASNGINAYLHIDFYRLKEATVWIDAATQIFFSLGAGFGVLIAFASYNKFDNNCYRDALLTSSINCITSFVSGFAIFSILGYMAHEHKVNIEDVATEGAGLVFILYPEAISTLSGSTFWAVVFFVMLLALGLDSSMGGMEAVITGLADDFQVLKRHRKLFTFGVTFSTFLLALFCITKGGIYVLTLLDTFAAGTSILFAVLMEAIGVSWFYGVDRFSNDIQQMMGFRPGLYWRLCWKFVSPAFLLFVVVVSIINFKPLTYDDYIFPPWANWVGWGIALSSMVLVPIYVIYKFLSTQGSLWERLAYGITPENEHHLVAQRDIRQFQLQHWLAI
Sequence of hSigma1 receptor (Q99720 whole entry): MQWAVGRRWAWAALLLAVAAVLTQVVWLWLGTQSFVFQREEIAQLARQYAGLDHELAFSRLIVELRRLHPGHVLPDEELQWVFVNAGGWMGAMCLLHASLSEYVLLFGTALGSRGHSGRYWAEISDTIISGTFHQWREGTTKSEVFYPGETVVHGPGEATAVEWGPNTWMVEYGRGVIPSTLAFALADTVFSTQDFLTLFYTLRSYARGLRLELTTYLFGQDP

SMILES	% maximum release ± sem, hSERT [3H]5-HT (hSERT [1])	EC50 (hSERT [1])	h5-HT2C Inhibition of 5-HT-stimulated IP-1 formation % maximum inhibition ± sem (h5-HT2C receptor [3])	ratio of binding Ki to uptake IC50, hNET (hNET [4])	IC50 (hNET [4])	releasing efficacy, hNET [3H]NE (hNET [5])	EC50 (hNET [5])	% maximum release ± sem, hNET [3H]NE (hNET [5])	Ki (hDAT [6])	Ki (h5-HT2A receptor [7])	Ki (hSigma1 receptor)	Ki (h5-HT2C receptor [8])	Ki (h5-HT1A receptor [9])	ratio of binding Ki to uptake IC50, hSERT (hSERT [10])	IC50 (hSERT [10])	Release of [3H]NE % maximum release ± sem or range, hVMAT2 (hVMAT2 [11])	EC50 (hVMAT2 [11])	Ki (hVMAT2 [12])	h5-HT1A Stimulation of [35S]GTPγS binding % maximum stimulation ± sem (h5-HT1A receptor [13])	EC50 (h5-HT1A receptor [13])	also measured
CC(N)Cc1ccc(Cl)cc1 (stereo not shown) [PCA, p-chloroamphetamine, reference compound]	106.4 ± 2.0%	0.8 ± 0.27 µM	–	–	–	–	–	–	–	–	–	–	–	–	–	–	–	–	–	–	–
CCCC(C(=O)c1ccc2c(c1)OCO2)N1CCCC1 (stereo not shown) [MDPV, 3,4-methylenedioxypyrovalerone]	–	> 100 µM	24.5 ± 8.4%	less than six	0.0188 ± 0.0021 µM	minimal releasing efficacy	> 100 µM	18 ± 15%	0.0194 ± 0.0032 µM	207 ± 29 µM	4.4 ± 1.7 µM	107 ± 30 µM	14.8 ± 3.8 µM	less than six	1.38 µM	35.8 ± 9.6%	148 ± 84 µM	990 ± 270 µM	69.0 ± 6.7%	60.8 ± 8.4 µM	postmortem blood concentration [2]: 0.06 to 3.3 mg/L; postmortem blood concentration (molar) [2]: 0.25 to 14 µM; IC50 (hVMAT2 [14]): > 100 µM; h5-HT2A Inhibition of 5-HT-stimulated IP-1 formation % maximum inhibition ± sem (h5-HT2A receptor [15]): 67.7 ± 5.4%; IC50 (h5-HT2A receptor [15]): 270 ± 86 µM; Ki (hNET [16]): 0.107 ± 0.034 µM; ratio of binding Ki to uptake IC50, hDAT (hDAT [17]): less than six; fold less potent at other target proteins than at biogenic amine transporters (hDAT [17]; other target proteins vs biogenic amine transporters): 60–350 fold; IC50 (hDAT [17]): 0.0126 ± 0.0024 µM; releasing efficacy, hSERT [3H]5-HT (hSERT [1]; concentrations ranging from 1 nM to 100 µM): minimal releasing efficacy; % maximum release ± sem, hSERT [3H]5-HT (hSERT [1]; relative to maximal AUC induced by PCA (10 µM)): 6.9 ± 2.1%; % maximum release ± sem, hDAT [3H]DA (hDAT [18]): 4.8 ± 5.3%; releasing efficacy, hDAT [3H]DA (hDAT [18]): minimal releasing efficacy; EC50 (hDAT [18]): > 100 µM
CCC(NC)C(=O)c1ccc2c(c1)OCO2 (stereo not shown) [Butylone]	30.1 ± 6.5%	3.1 ± 1.4 µM	11 ± 12%	7.5	1.06 ± 0.24 µM	minimal releasing efficacy	> 100 µM	3.6 ± 2.2%	1.73 ± 0.27 µM	118 ± 17 µM	7.9 ± 1.8 µM	41 ± 12 µM	> 96 µM	5.3	1.97 ± 0.43 µM	17.4 ± 1.1%	4.4 ± 0.52 µM	730 ± 110 µM	52 ± 13%	440 ± 110 µM	IC50 (hVMAT2 [14]): 162 ± 55 µM; h5-HT2A Inhibition of 5-HT-stimulated IP-1 formation % maximum inhibition ± sem (h5-HT2A receptor [15]): 95.9 ± 4.1%; IC50 (h5-HT2A receptor [15]): 410 ± 110 µM; Ki (hNET [16]): 7.98 ± 0.55 µM; ratio of binding Ki to uptake IC50, hDAT (hDAT [17]): 8.2; IC50 (hDAT [17]): 0.211 ± 0.054 µM; % maximum release ± sem, hDAT [3H]DA (hDAT [18]): 5.4 ± 3.8%; releasing efficacy, hDAT [3H]DA (hDAT [18]): minimal releasing efficacy; EC50 (hDAT [18]): > 10 µM
